From PubChem BioAssay AID284 (DTP/NCI, 2004) come the findings set out here.

Where “and” joins values, the source holds several entries; their conditions need not be identical. Equal entries are not always repeated. Inconclusive results and toxic doses are left out.

In the assay the test system is BDF1 mice, L1210/MTX-resistant leukemia ip, survival T/C. The assay is described as follows: NCI In Vivo Anticancer Drug Screen. Data for tumor model L1210 Leukemia resistant to Methotrexate; NSC 740 (intraperitoneal) in B6D2F1 (BDF1) mice. To be noted: endpoint: mean survival time, higher = longer survival. On the procedure:
The antitumor activity of compounds was measured in mice bearing transplantable tumors. Survival or tumor size were measured and the results are expressed as the measurement made in the treated group (T) divided by the measurement made in the vehicle treated control group (C). The tumor model used in this assay is L1210 Leukemia resistant to Methotrexate; NSC 740 (intraperitoneal) in B6D2F1 (BDF1) mice

On to `Nc1nc(F)nc2c1ncn2C1OC(CO)C(O)C1O` (stereo unspecified), for which the T/C (dose: 0.25 mg/kg/injection, schedule: Q01DX Z (ip), vehicle: saline) was 122 % of control; the T/C (dose: 0.75 mg/kg/injection, schedule: Q01DX Z (ip), vehicle: saline) is 115 % of control; the T/C (dose: 1.5 mg/kg/injection, schedule: Q01DX Z (ip), vehicle: saline) was 108 % of control; the T/C (dose: 3.0 mg/kg/injection, schedule: Q01DX Z (ip), vehicle: saline) is 104 % of control; the T/C (dose: 6.0 mg/kg/injection, schedule: Q01DX Z (ip), vehicle: saline) is 86 % of control; the T/C (dose: 25.0 micrograms/kg/injection, schedule: Q01DX Z (ip), vehicle: saline) was 91 % of control. The T/C reads like this: (dose: 50.0 micrograms/kg/injection, schedule: Q01DX Z (ip), vehicle: saline) 92 % of control; (dose: 100.0 micrograms/kg/injection, schedule: Q01DX Z (ip), vehicle: saline) 100 % of control; (dose: 210.0 micrograms/kg/injection, schedule: Q01DX Z (ip), vehicle: saline) 86 % of control.

With `C1CN1c1nc(N2CC2)nc(N2CC2)n1`, the T/C is 93 % of control (dose: 2.0 mg/kg/injection, schedule: Q01DX Z (ip), vehicle: saline); 93 % of control (dose: 4.0 mg/kg/injection, schedule: Q01DX Z (ip), vehicle: saline); 90 % of control and 100 % of control (dose: 32.0 micrograms/kg/injection, schedule: Q01DX Z (ip), vehicle: saline); 98 % of control (dose: 63.0 micrograms/kg/injection, schedule: Q01DX Z (ip), vehicle: saline); 87 % of control (dose: 125.0 micrograms/kg/injection, schedule: Q01DX Z (ip), vehicle: saline); 98 % of control (dose: 250.0 micrograms/kg/injection, schedule: Q01DX Z (ip), vehicle: saline).

Turning to `NC(=O)N(CCCl)N=O`, the T/C reads like this: (dose: 0.5 mg/kg/injection, schedule: Q01DX010 (ip), vehicle: saline) 158 % of control; (dose: 4.0 mg/kg/injection, schedule: Q01DX010 (ip), vehicle: saline) 104 % of control.

`c1ccc(CNc2ncnc3[nH]ncc23)cc1`: the T/C (dose: 8.0 mg/kg/injection, schedule: Q01DX010 (ip), vehicle: saline) is 94 % of control and 103 % of control; the T/C (dose: 16.0 mg/kg/injection, schedule: Q01DX010 (ip), vehicle: saline) was 96 % of control and 100 % of control; the T/C (dose: 32.0 mg/kg/injection, schedule: Q01DX010 (ip), vehicle: saline) is 91 % of control.

With `S=P(N1CCOCC1)(N1CC1)N1CC1`, the T/C is 92 % of control (dose: 2.0 mg/kg/injection, schedule: Q01DX Z (ip), vehicle: carboxymethylcellulose (CMC)); 93 % of control (dose: 6.0 mg/kg/injection, schedule: Q01DX Z (ip), vehicle: carboxymethylcellulose (CMC)); 92 % of control (dose: 8.0 mg/kg/injection, schedule: Q01DX Z (ip), vehicle: carboxymethylcellulose (CMC)); 96 % of control (dose: 10.0 mg/kg/injection, schedule: Q01DX Z (ip), vehicle: carboxymethylcellulose (CMC)); 95 % of control (dose: 20.0 mg/kg/injection, schedule: Q01DX Z (ip), vehicle: carboxymethylcellulose (CMC)).

For the molecule `Clc1ccc(C(c2ccccc2Cl)C(Cl)Cl)cc1` (stereo unspecified), the T/C reads like this: (dose: 62.5 mg/kg/injection, schedule: Q01DX Z (sc), vehicle: steriod suspending solution) 105 % of control; (dose: 125.0 mg/kg/injection, schedule: Q01DX Z (sc), vehicle: steriod suspending solution) 99 % of control; (dose: 250.0 mg/kg/injection, schedule: Q01DX Z (sc), vehicle: steriod suspending solution) 107 % of control; (dose: 500.0 mg/kg/injection, schedule: Q01DX Z (sc), vehicle: steriod suspending solution) 110 % of control.

Turning to `CC[C@]1(O)C[C@H]2CN(CCc3c([nH]c4ccccc34)[C@@](C(=O)OC)(c3cc4c(cc3OC)N(C=O)[C@H]3[C@@](O)(C(=O)OC)[C@H](OC(C)=O)[C@]5(CC)C=CCN6CC[C@]43[C@@H]65)C2)C1`, the T/C (dose: 0.03 mg/kg/injection, schedule: Q01DX010 (ip), vehicle: saline) is 94 % of control; the T/C (dose: 0.06 mg/kg/injection, schedule: Q01DX010 (ip), vehicle: saline) was 106 % of control; the T/C (dose: 0.12 mg/kg/injection, schedule: Q01DX010 (ip), vehicle: saline) is 95 % of control; the T/C (dose: 0.25 mg/kg/injection, schedule: Q01DX010 (ip), vehicle: saline) was 89 % of control.

Consider `CCOC(N)=O`, for which the T/C was 87 % of control (dose: 62.5 mg/kg/injection, schedule: Q01DX010 (ip), vehicle: saline); 98 % of control (dose: 125.0 mg/kg/injection, schedule: Q01DX010 (ip), vehicle: saline); 102 % of control (dose: 188.0 mg/kg/injection, schedule: Q01DX Z (ip), vehicle: saline); 91 % of control (dose: 250.0 mg/kg/injection, schedule: Q01DX Z (ip), vehicle: saline); 87 % of control and 99 % of control (dose: 375.0 mg/kg/injection, schedule: Q01DX Z (ip), vehicle: saline); 88 % of control (dose: 500.0 mg/kg/injection, schedule: Q01DX010 (ip), vehicle: saline). Also, the T/C (dose: 750.0 mg/kg/injection, schedule: Q01DX Z (ip), vehicle: saline) was 93 % of control and the T/C (dose: 1500.0 mg/kg/injection, schedule: Q01DX Z (ip), vehicle: saline) was 100 % of control.

Consider `N=[N+]=CC(=O)OCC(N)C(=O)O` (stereo unspecified), for which the T/C is 116 % of control and 121 % of control (dose: 1.25 mg/kg/injection, schedule: Q01DX Z (ip), vehicle: saline); 112 % of control (dose: 2.5 mg/kg/injection, schedule: Q01DX Z (ip), vehicle: saline); 117 % of control and 104 % of control (dose: 10.0 mg/kg/injection, schedule: Q01DX Z (ip), vehicle: saline); 101 % of control (dose: 40.0 mg/kg/injection, schedule: Q01DX Z (ip), vehicle: saline); 93 % of control (dose: 80.0 mg/kg/injection, schedule: Q01DX Z (ip), vehicle: saline).
